How the values were obtained:
[1] = biological target: T1, Adenosine receptor A3 (Homo sapiens) (UniProt P0DMS8); details: CHO, 1 uM
T1 sequence (whole entry): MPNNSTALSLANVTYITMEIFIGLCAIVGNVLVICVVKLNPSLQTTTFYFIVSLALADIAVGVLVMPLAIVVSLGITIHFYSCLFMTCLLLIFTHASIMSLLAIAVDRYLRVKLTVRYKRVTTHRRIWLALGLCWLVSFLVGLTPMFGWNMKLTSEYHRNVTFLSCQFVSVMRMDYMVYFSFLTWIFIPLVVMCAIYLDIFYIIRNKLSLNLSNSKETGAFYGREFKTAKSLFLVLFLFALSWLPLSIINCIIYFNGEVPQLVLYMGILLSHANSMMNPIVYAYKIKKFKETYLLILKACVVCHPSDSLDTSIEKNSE
Description: Inhibition of [35S]GTP gamma-S binding to CHO cell membranes expressing human A3 receptor at 1 uM

Adenosine receptor A2b [2] = biological target: T2, Adenosine receptor A2b (Homo sapiens, UniProt P29275); experiment: Antagonistic activity against Adenosine A2B receptor; assay type: functional
T2 sequence (P29275 whole entry): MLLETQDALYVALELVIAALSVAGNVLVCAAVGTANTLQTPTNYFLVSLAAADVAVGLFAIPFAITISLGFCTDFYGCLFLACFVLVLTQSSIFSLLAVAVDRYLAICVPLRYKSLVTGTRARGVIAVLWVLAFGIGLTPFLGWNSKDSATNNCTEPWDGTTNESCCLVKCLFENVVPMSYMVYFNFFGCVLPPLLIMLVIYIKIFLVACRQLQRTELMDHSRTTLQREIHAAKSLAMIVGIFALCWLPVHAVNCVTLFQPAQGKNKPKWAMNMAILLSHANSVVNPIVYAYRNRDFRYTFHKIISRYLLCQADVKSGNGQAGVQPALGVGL

Adenosine receptor A2a = Adenosine receptor A2a (Homo sapiens, UniProt P29274); experiment: [3H]NECA […] binding in CHO cells expressing human recombinant A2A adenosine receptor; assay type: cell-based
Adenosine receptor A3 = biological target: T3, Adenosine receptor A3 (Homo sapiens, UniProt P0DMS8); experiment: [3H]NECA […] binding in CHO cells expressing human Adenosine A3 receptor; assay type: cell-based
T3 sequence (P0DMS8 whole entry): T1 sequence (whole entry)

Adenosine receptor A2b [3] = biological target: T2, Adenosine receptor A2b; experiment: Receptor stimulated adenylyl cyclase activity in CHO cells expressing human recombinant Adenosine A2B receptor; assay type: functional, cell-based
Adenosine receptor A1 = biological target: T4, Adenosine receptor A1 (Homo sapiens, UniProt P30542); experiment: Displacement of [3H]-CCPA from CHO cells expressing human recombinant Adenosine A1 receptor; assay type: cell-based
T4 sequence (P30542 whole entry): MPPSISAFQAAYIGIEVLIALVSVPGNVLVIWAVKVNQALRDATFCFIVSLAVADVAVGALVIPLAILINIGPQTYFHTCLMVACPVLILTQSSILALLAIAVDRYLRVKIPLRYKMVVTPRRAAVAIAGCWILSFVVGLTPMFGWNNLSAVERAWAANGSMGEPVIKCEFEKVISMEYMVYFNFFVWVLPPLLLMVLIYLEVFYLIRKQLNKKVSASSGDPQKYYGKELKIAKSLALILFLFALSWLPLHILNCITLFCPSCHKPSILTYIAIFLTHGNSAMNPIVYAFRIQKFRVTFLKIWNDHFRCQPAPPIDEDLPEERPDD

[4] = biological target: T1, Adenosine receptor A3 (Homo sapiens); experiment: Stimulation of [35S]GTP gamma-S binding in CHO cell membranes expressing human A3 receptor at 78.8 uM; assay type: functional
[5] = biological target: T1, Adenosine receptor A3 (Homo sapiens); experiment: Stimulation of [35S]GTP gamma-S binding in CHO cell membranes expressing human A3 receptor at 983 uM; assay type: functional

Sequence of Adenosine receptor A2a (P29274 whole entry): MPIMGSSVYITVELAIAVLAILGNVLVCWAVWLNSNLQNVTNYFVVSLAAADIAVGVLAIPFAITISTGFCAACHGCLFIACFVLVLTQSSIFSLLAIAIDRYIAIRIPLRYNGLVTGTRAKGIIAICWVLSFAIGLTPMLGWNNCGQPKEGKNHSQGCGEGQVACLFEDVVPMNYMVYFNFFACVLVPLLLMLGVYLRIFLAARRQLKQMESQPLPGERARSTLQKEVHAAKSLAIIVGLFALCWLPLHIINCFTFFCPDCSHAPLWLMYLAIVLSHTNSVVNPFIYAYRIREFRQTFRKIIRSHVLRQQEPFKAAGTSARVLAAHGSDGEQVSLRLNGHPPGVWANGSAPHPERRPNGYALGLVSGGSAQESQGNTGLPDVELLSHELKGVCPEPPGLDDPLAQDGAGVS

| SMILES | Agonist effect [1] [%] | IC50 (Adenosine receptor A2b [2]) [µM] | Ki (Adenosine receptor A2a) [µM] | Ki (Adenosine receptor A3) [µM] | EC50 (Adenosine receptor A2b [3]) [µM] | Ki (Adenosine receptor A1) [µM] | Agonist effect [4] [%] | Agonist effect [5] [%] |
| --- | --- | --- | --- | --- | --- | --- | --- | --- |
| CCNC(=O)[C@H]1O[C@@H](n2cnc3c(N)ncnc32)[C@H](O)[C@@H]1O | 100 |  |  |  |  |  |  |  |
| CCn1c(C#Cc2ccccc2)nc2c(N)ncnc21 |  | ≥ 100 | 0.6 | 0.086 |  |  |  |  |
| CCCCC#Cc1nc2c(N)ncnc2n1[C@@H]1O[C@H](CO)C(O)C1O (single isomer, unassigned) |  |  | > 100 |  | > 100 | > 100 |  |  |
| Nc1ncnc2c1nc(C#Cc1ccccc1)n2[C@@H]1O[C@H](CO)C(O)C1O (single isomer, unassigned) |  |  | > 100 | 0.79 | > 100 | > 100 | 0.2 |  |
| Nc1ncnc2c1nc(/C=C/C(=O)c1ccccc1)n2[C@@H]1O[C@H](CO)[C@@H](O)[C@H]1O |  |  | 46.6 | 9.83 | > 100 | > 100 |  | 1.9 |

— ChEMBL document CHEMBL1134734, “Introduction of alkynyl chains on C-8 of adenosine led to very selective antagonists of the A(3) adenosine receptor” (Bioorg Med Chem Lett, 2001)
